≈ marks a conversion by molar mass, not a printed value. Like-named read-outs stand apart in the source and are kept apart here.
Tests used:
Type in all cases: cell-based
[1] = system: Gram negative anaerobic pathogens and facultative anaerobic pathogens; experiment: MIC by agar dilution, Brucella HK agar with 5% laked sheep blood, anaerobic reference strains
[2] = system: Yersinia enterocolitica; experiment: MIC by agar dilution (NCCLS M7-A4), 288 enteropathogenic isolates, eight quinolones; conditions: Yersinia enterocolitica (n = 22)
[3] = system: Escherichia coli; experiment: MIC by agar dilution (NCCLS), 322 nosocomial Gram negative isolates, Athens 1998; conditions: n = 57 isolates
[4] = system: Staphylococcus aureus; experiment: MIC by NCCLS reference broth microdilution, 450 respiratory tract pathogens
[5] = system: Hafnia alvei; experiment: MIC by agar dilution (NCCLS M7-A4), 288 enteropathogenic isolates, eight quinolones; conditions: Hafnia alvei (n = 32)
[6] = system: Streptococcus pyogenes; experiment: MIC by NCCLS broth microdilution, 1100 Japanese clinical isolates 1997-1998
[7] = system: Streptococcus pyogenes; experiment: MIC by NCCLS reference broth microdilution, 450 respiratory tract pathogens; conditions: Streptococcus pyogenes
[8] = system: Streptococcus pneumoniae; experiment: MIC by NCCLS broth microdilution, 1100 Japanese clinical isolates 1997-1998; conditions: for MIC: Streptococcus pneumoniae quinolone resistant
[9] = system: Providencia rettgeri; experiment: as above; conditions: Providencia rettgeri (n=12)
[10] = β-lactamase positive and erythromycin resistant (n = 10)
[11] = Streptococcus pyogenes (n = 100)
[12] = erythromycin resistant C phenotype [MLSB] (n = 20)
[13] = erythromycin resistant I phenotype [MLSB] (n = 20)
[14] = erythromycin resistant M phenotype (n = 20)
[15] = Streptococcus pneumoniae erythromycin resistant (n=34)
[16] = Streptococcus pneumoniae erythromycin susceptible (n=11)

## N[C@@H]1[C@H]2CN(c3nc4c(cc3F)c(=O)c(C(=O)O)cn4-c3ccc(F)cc3F)C[C@@H]12 [Trovafloxacin, trovafloxacin]
[1]; Prevotella bivia, ATCC29303, Prevotella bivia ATCC29303, read-out: MIC
  MIC: 2 µg/mL (≈ 4.8 µM)
[1]; Prevotella buccaeATCC33574, read-out: MIC
  MIC: 0.5 µg/mL (≈ 1.2 µM)
[1]; Prevotella heparinolytica, ATCC35895
  MIC: 0.125 µg/mL (≈ 0.3 µM)
[1]; Sutterella wadsworthensis, ATCC51579, Sutterella wadsworthensis ATCC51579, read-out: MIC
  MIC: 0.25 µg/mL (≈ 0.6 µM)
[1]; Veillonella dispar, ATCC17748
  MIC: 0.125 µg/mL (≈ 0.3 µM)
[1]; Veillonella parvula, ATCC10790, Veillonella parvula ATCC10790, read-out: MIC
  MIC: 0.25 µg/mL (≈ 0.6 µM)
[2]
  % Susceptible: 100%
  MIC50: 0.06 µg/mL (≈ 0.144 µM)
  MIC90: 0.06 µg/mL (≈ 0.144 µM)
  MIC Range: ≤0.015 to 0.25 µg/mL
[3]; Escherichia coli
  MIC50: 0.06 µg/mL (≈ 0.144 µM)
  MIC90: 0.25 µg/mL (≈ 0.6 µM)
[3]
  MIC Range: ≤0.03 to 64 µg/mL
[4]; Staphylococcus aureus (n = 50)
  MIC: 0.00375 to 0.5 µg/mL (≈ 0.00901 to 1.2 µM)
  MIC50: 0.12 µg/mL (≈ 0.288 µM)
  MIC90: 0.25 µg/mL (≈ 0.6 µM)
[4]; β-lactamase negative (n = 20)
  MIC: 0.00375 to 0.25 µg/mL (≈ 0.00901 to 0.6 µM)
  MIC50: 0.12 µg/mL (≈ 0.288 µM)
  MIC90: 0.25 µg/mL (≈ 0.6 µM)
[4]; β-lactamase positive (n = 20)
  MIC: 0.06 to 0.5 µg/mL (≈ 0.144 to 1.2 µM)
  MIC50: 0.12 µg/mL (≈ 0.288 µM)
  MIC90: 0.25 µg/mL (≈ 0.6 µM)
[4]; [10]
  MIC: 0.00375 to 0.25 µg/mL (≈ 0.00901 to 0.6 µM)
  MIC50: 0.12 µg/mL (≈ 0.288 µM)
  MIC90: 0.25 µg/mL (≈ 0.6 µM)
[5]
  % Susceptible: 100%
  MIC50: 0.06 µg/mL (≈ 0.144 µM)
  MIC90: 0.06 µg/mL (≈ 0.144 µM)
  MIC Range: 0.03 to 0.12 µg/mL
[6]; Streptococcus pyogenes
  MIC50: 0.125 µg/mL (≈ 0.3 µM)
[6]; Streptococcus pyogenes (n=51)
  MIC90: 0.5 µg/mL (≈ 1.2 µM)
  MIC Range: 0.063 to 0.5 µg/mL
[7]; [11]
  MIC: 0.03 to 1 µg/mL (≈ 0.0721 to 2.4 µM)
  MIC50: 0.12 µg/mL (≈ 0.288 µM)
  MIC90: 0.25 µg/mL (≈ 0.6 µM)
[7]; [12]
  MIC: 0.03 to 0.12 µg/mL (≈ 0.0721 to 0.288 µM)
  MIC50: 0.06 µg/mL (≈ 0.144 µM)
  MIC90: 0.12 µg/mL (≈ 0.288 µM)
[7]; [13]
  MIC: 0.06 to 0.5 µg/mL (≈ 0.144 to 1.2 µM)
  MIC50: 0.12 µg/mL (≈ 0.288 µM)
  MIC90: 0.5 µg/mL (≈ 1.2 µM)
[7]; [14]
  MIC: 0.06 to 0.5 µg/mL (≈ 0.144 to 1.2 µM)
  MIC50: 0.12 µg/mL (≈ 0.288 µM)
  MIC90: 0.12 µg/mL (≈ 0.288 µM)
[7]; fully susceptible (n = 20)
  MIC: 0.06 to 1 µg/mL (≈ 0.144 to 2.4 µM)
  MIC50: 0.12 µg/mL (≈ 0.288 µM)
  MIC90: 0.25 µg/mL (≈ 0.6 µM)
[7]; multi-drug resistant (n = 20)
  MIC: 0.12 to 0.25 µg/mL (≈ 0.288 to 0.6 µM)
  MIC50: 0.12 µg/mL (≈ 0.288 µM)
  MIC90: 0.25 µg/mL (≈ 0.6 µM)
[8]; Streptococcus pneumoniae
  MIC50: 0.125 µg/mL (≈ 0.3 µM)
  MIC90: 0.125 µg/mL (≈ 0.3 µM)
[8]; Streptococcus pneumoniae amoxicillin resistant (n=40)
  MIC Range: 0.063 to 1 µg/mL
[8]; Streptococcus pneumoniae amoxicillin susceptible (n=35)
  MIC Range: 0.063 to 1 µg/mL
[8]; [15]
  MIC90: 0.125 µg/mL (≈ 0.3 µM)
  MIC Range: 0.063 to 1 µg/mL
[8]; [16]
  MIC90: 0.125 µg/mL (≈ 0.3 µM)
  MIC Range: 0.063 to 0.125 µg/mL
[8]; Streptococcus pneumoniae, Streptococcus pneumoniae amoxicillin resistant (n=40), read-out: MIC50
  MIC50: 0.063 µg/mL (≈ 0.151 µM)
[8]; Streptococcus pneumoniae, Streptococcus pneumoniae amoxicillin susceptible (n=35), read-out: MIC50
  MIC50: 0.063 µg/mL (≈ 0.151 µM)
[8]; Streptococcus pneumoniae, Streptococcus pneumoniae amoxicillin susceptible (n=35), read-out: MIC90
  MIC90: 0.25 µg/mL (≈ 0.6 µM)
[8]; Streptococcus pneumoniae, Streptococcus pneumoniae erythromycin resistant (n=34), read-out: MIC50
  MIC50: 0.063 µg/mL (≈ 0.151 µM)
[8]; Streptococcus pneumoniae, strain TMS1
  MIC: 0.25 µg/mL (≈ 0.6 µM)
[8]; Streptococcus pneumoniae, strain TMS2
  MIC: 1 µg/mL (≈ 2.4 µM)
[9]
  MIC90: 8 µg/mL (≈ 19.2 µM)
  MIC Range: 0.125 to 8 µg/mL
[9]; read-out: MIC50
  MIC50: 0.25 µg/mL (≈ 0.6 µM)
